From US12134620B2 (ARAXES PHARMA LLC, priority 2018, dated 2024) come the findings set out here.

This assay concerns the target T1, KRAS G12C 1-169, his-tagged protein, GDP-loaded (Homo sapiens, UniProt P01116, G12C).
T1 construct: KRAS G12C 1-169, his-tagged protein, GDP-loaded; His tag
As to the kind of experiment: Biochemical assay: covalent modification of KRAS G12C, analysed by mass spectrometry (RapidFire/TOF or Q-Exactive). Also: time not given here. The note with it: Modification activity, modification percentage from MS peak intensities. Type of assay: binding. Summed up: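 GDP-loaded His-tagged KRAS G12C 1-169 (2 μM or 0.5 μM in 20 mM Hepes, 150 mM NaCl, 1 mM MgCl2) reacted with compound at 32 μM or 8 μM final (2% DMSO) for a set time, then quenched with formic acid. Percent covalent modification from deconvoluted intact-protein MS peak intensities (RapidFire/TOF or LC-Q Exactive).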
On to `C=CC(=O)N1CC2(CCN(c3nc(N4CC(N(C)C)C4)nc(-c4c(C)ccc5[nH]ncc45)c3C#N)C2)C1` [Compound I-4, 4-(2-acryloyl-2,6-diazaspiro[3.4]octan-6-yl)-2-(3-(dimethylamino)azeti-din-1-yl)-6-(5-methyl-1H-indazol-4-yl)pyrimidine-5-carbonitrile], for which the Binding % result is recorded as “+++ (+++ indicates binding activity greater than 85%)”.
To `C=CC(=O)N1CC2(CCN(c3nc(OCc4ccccc4)nc(-c4c(C)ccc5cnn(C)c45)c3C#N)C2)C1` [Compound I-163, 4-(2-acryloyl-2,6-diazaspiro[3.4]octan-6-yl)-2-(benzyloxy)-6-(1,6-dimethyl-1H-indazol-7-yl)pyrimidine-5-carbonitrile] belongs “++ (++ indicates binding activity from 50 to 85%)”; to `C=CC(=O)N1CC2(CCN(c3nc(N4CCOCC4)nc(-c4cccc5ccccc45)c3C#N)C2)C1` [Compound I-100, 4-(2-acryloyl-2,6-diazaspiro[3.4]octan-6-yl)-2-morpholino-6-(naphthalen-1-yl)pyrimidine-5-carbonitrile], “+ (+ indicates binding activity greater than 0% and up to 50%)”.
To `C=CC(=O)N1CC2(CCN(c3nc(OC[C@@H]4CCCN4C)nc(-c4cc(C(N)=O)ccc4F)c3C#N)C2)C1` [Compound I-94, (S)-3-(6-(2-acryloyl-2,6-diazaspiro[3.4]octan-6-yl)-5-cyano-2-((1-methylpyrrolidin-2-yl)methoxy)pyrimidin-4-yl)-4-fluorobenzamide] belongs “+ (+ indicates binding activity greater than 0% and up to 50%)”; to `C=CC(=O)N1CC2(CCN(c3nc(N4CCCC(N(C)C)C4)nc(-c4c(C)ccc5[nH]ncc45)c3C#N)C2)C1` (stereo not shown) [Compound I-110, 4-(2-acryloyl-2,6-diazaspiro[3.4]octan-6-yl)-2-(3-(dimethylamino)piperi-din-1-yl)-6-(5-methyl-1H-indazol-4-yl)pyrimidine-5-carbonitrile], “+++ (+++ indicates binding activity greater than 85%)”; to `CC#CC(=O)N1CC2(CCN(c3cncc(-c4c(C)ccc5cnn(C)c45)c3C#N)C2)C1` [Compound I-271, 3-(2-(but-2-ynoyl)-2,6-diazaspiro[3.4]octan-6-yl)-5-(1,6-dimethyl-1H-indazol-7-yl)isonicotinonitrile], “+ (+ indicates binding activity greater than 0% and up to 50%)”.
The same measure for `C=CC(=O)N1CC2(CCN(c3cnc(OCCc4ccccc4)c(-c4c(C)ccc5cnn(C)c45)c3C#N)C2)C1` [Compound I-222, 5-(2-acryloyl-2,6-diazaspiro[3.4]octan-6-yl)-3-(1,6-dimethyl-1H-indazol-7-yl)-2-phenethoxyisonicoti-nonitrile]: “++ (++ indicates binding activity from 50 to 85%)”.
Take `C=CC(=O)N1CC2(CCN(c3cnc(OCc4ccccc4)c(-c4c(C)ccc5cnn(C)c45)c3C#N)C2)C1` [Compound I-225, 5-(2-acryloyl-2,6-diazaspiro[3.4]octan-6-yl)-2-(benzyloxy)-3-(1,6-dimethyl-1H-indazol-7-yl)isonicotinonitrile]: the Binding % entry is recorded as “++ (++ indicates binding activity from 50 to 85%)”.
To `C=CC(=O)N1CC2(CCN(c3nc(OC[C@@H]4CCCN4C)nc(N4CCCC(O)C4)c3C#N)C2)C1` (stereo partly drawn) [Compound I-13, 4-(2-acryloyl-2,6-diazaspiro[3.4]octan-6-yl)-6-(3-hydroxypiperidin-1-yl)-2-(((S)-1-methylpyrrolidin-2-yl)methoxy)pyrimidine-5-carbonitrile] belongs “+ (+ indicates binding activity greater than 0% and up to 50%)”; to `C=CC(=O)N1CC2(CCN(c3cncc(-c4c(C)ccc5cnn(C)c45)c3C#N)C2)C1` [Compound I-264, 3-(2-acryloyl-2,6-diazaspiro[3.4]octan-6-yl)-5-(1,6-dimethyl-1H-indazol-7-yl)isonicotinonitrile], “++ (++ indicates binding activity from 50 to 85%)”; to `C#Cc1c(-c2c(C)ccc3[nH]ncc23)ncnc1N1CCC2(CN(C(=O)C=C)C2)C1` [Compound I-268, 1-(6-(5-ethynyl-6-(5-methyl-1H-indazol-4-yl)pyrimidin-4-yl)-2,6-diazaspiro[3.4]octan-2-yl)prop-2-en-1-one], “+ (+ indicates binding activity greater than 0% and up to 50%)”.
To `C=CC(=O)N1CC2(CCN(c3nccc(-c4c(C)ccc5[nH]ncc45)c3C#N)C2)C1` [Compound I-267, 2-(2-acryloyl-2,6-diazaspiro[3.4]octan-6-yl)-4-(5-methyl-1H-indazol-4-yl)nicotinonitrile] belongs “+ (+ indicates binding activity greater than 0% and up to 50%)”.
Take `C=CC(=O)N1CC2(CCN(c3nc(OCCc4ccccn4)nc(-c4c(C)ccc5[nH]ncc45)c3C#N)C2)C1` [Compound I-8, 4-(2-acryloyl-2,6-diazaspiro[3.4]octan-6-yl)-6-(5-methyl-1H-indazol-4-yl)-2-(2-(pyridin-2-yl)ethoxy)pyrimidine-5-carbonitrile]: the Binding % entry is given as “+++ (+++ indicates binding activity greater than 85%)”.
The same measure for `C=CC(=O)N1CC2(CCN(c3cnc(Oc4ccccc4)c(-c4c(C)ccc5cnn(C)c45)c3C#N)C2)C1` [Compound I-215, 5-(2-acryloyl-2,6-diazaspiro[3.4]octan-6-yl)-3-(1,6-dimethyl-1H-indazol-7-yl)-2-phenoxyisonicotinoni-trile]: “++ (++ indicates binding activity from 50 to 85%)”; for `C=CC(=O)N1CC2(CCN(c3nc(OC[C@@H]4CCCN4C)nc(-c4ccnc(N)n4)c3C#N)C2)C1` [Compound I-167, (S)-6-(2-acryloyl-2,6-diazaspiro[3.4]octan-6-yl)-2′-amino-2-((1-methylpyrrolidin-2-yl)methoxy)-[4,4′-bipyrimidine]-5-carbonitrile]: “+ (+ indicates binding activity greater than 0% and up to 50%)”; for `C=CC(=O)N1CC2(CCN(c3nc(OCCN4CCC(F)(F)C4)nc(-c4c(C)ccc5[nH]ncc45)c3C#N)C2)C1` [Compound I-21, 4-(2-acryloyl-2,6-diazaspiro[3.4]octan-6-yl)-2-(2-(3,3-difluoropyrrolidin-1-yl)ethoxy)-6-(5-methyl-1H-indazol-4-yl)pyrimidine-5-carbonitrile]: “++ (++ indicates binding activity from 50 to 85%)”.
As to `C=CC(=O)N1CC2(CCN(c3nc(Oc4cnn(C)c4)nc(-c4c(C)ccc5[nH]ncc45)c3C#N)C2)C1` [Compound I-19, 4-(2-acryloyl-2,6-diazaspiro[3.4]octan-6-yl)-6-(5-methyl-1H-indazol-4-yl)-2-((1-methyl-1H-pyrazol-4-yl)oxy)pyrimidine-5-carbonitrile], the Binding % result is reported as “++ (++ indicates binding activity from 50 to 85%)”.
As to `C=CC(=O)N1CC2(CCN(c3nc(N4CCC[C@@H]4CO)nc(-c4c(C)ccc5[nH]ncc45)c3C#N)C2)C1` [Compound I-209, 4-(2-acryloyl-2,6-diazaspiro[3.4]octan-6-yl)-2-((R)-2-(hydroxymethyl)pyrro-lidin-1-yl)-6-(5-methyl-1H-indazol-4-yl)pyrimidine-5-carbonitrile], the Binding % result is listed as “++ (++ indicates binding activity from 50 to 85%)”.
Regarding `C=CC(=O)N1CC2(CCN(c3ncnc(-c4c(C)ccc5[nH]ncc45)c3C(=O)N(C)C)C2)C1` [Compound I-254, 4-(2-acryloyl-2,6-diazaspiro[3.4]octan-6-yl)-N,N-dimethyl-6-(5-methyl-1H-indazol-4-yl)pyrimidine-5-carboxamide], the Binding % entry is “+ (+ indicates binding activity greater than 0% and up to 50%)”.
To `C=CC(=O)N1CC2(CCN(c3nc(N4CCOCC4)nc(-c4c(C)ccc5[nH]ncc45)c3F)C2)C1` [Compound I-118, 1-(6-(5-fluoro-6-(5-methyl-1H-indazol-4-yl)-2-morpholinopyrimidin-4-yl)-2,6-diazaspiro[3.4]octan-2-yl)prop-2-en-1-one] belongs “++ (++ indicates binding activity from 50 to 85%)”.
The same measure for `C=CC(=O)N1CC2(CCN(c3nc(OCc4ccccn4)nc(-c4c(F)ccc5cnn(C)c45)c3C#N)C2)C1` [Compound I-123, 4-(2-acryloyl-2,6-diazaspiro[3.4]octan-6-yl)-6-(6-fluoro-1-methyl-1H-indazol-7-yl)-2-(pyridin-2-ylmethoxy)pyrimidine-5-carbonitrile]: “+ (+ indicates binding activity greater than 0% and up to 50%)”; for `C=CC(=O)N1CC2(CCN(c3c(C#N)c(-c4c(C)ccc5[nH]ncc45)[nH]c(=O)[n+]3Cc3ccccc3)C2)C1` [Compound I-179, 6-(2-acryloyl-2,6-diazaspiro[3.4]octan-6-yl)-1-benzyl-4-(5-methyl-1H-indazol-4-yl)-2-oxo-2H-1l4,3l2-pyrimidine-5-carbonitrile]: “+ (+ indicates binding activity greater than 0% and up to 50%)”.
To `C=CC(=O)N1CC2(CCN(c3nc(OCCN4CC(F)(F)C4)nc(-c4c(C)ccc5[nH]ncc45)c3C#N)C2)C1` [Compound I-87, 4-(2-acryloyl-2,6-diazaspiro[3.4]octan-6-yl)-2-(2-(3,3-difluoroazetidin-1-yl)ethoxy)-6-(5-methyl-1H-indazol-4-yl)pyrimidine-5-carbonitrile] belongs “++ (++ indicates binding activity from 50 to 85%)”; to `C=CC(=O)N1CC2(CCN(c3ncnc(N4CCC[C@@H]4C(N)=O)c3C#N)C2)C1` [Compound I-247, (R)-1-(6-(2-acryloyl-2,6-diazaspiro[3.4]octan-6-yl)-5-cyanopyrimidin-4-yl)pyrrolidine-2-carboxamide], “+ (+ indicates binding activity greater than 0% and up to 50%)”; to `C=CC(=O)N1CC2(CCN(c3ncnc(-c4c(C)ccc5[nH]ncc45)c3C(N)=O)C2)C1` [Compound I-253, 4-(2-acryloyl-2,6-diazaspiro[3.4]octan-6-yl)-6-(5-methyl-1H-indazol-4-yl)pyrimidine-5-carboxamide], “+ (+ indicates binding activity greater than 0% and up to 50%)”.
